Measurements reported in patent US20220088231A1, “RADIOIMMUNOCONJUGATES AND DNA DAMAGE AND REPAIR INHIBITOR COMBINATION THERAPY” (Fusion Pharmaceuticals Inc., priority 2018, published 2022).
Entries after “also recorded” stand apart in the source; their conditions may differ.

Key:
[1] = Animal tolerability observation during BAY-1895344 dosing in the Colo-205 xenograft study; type: in vivo; settings: Example 2: BAY-1895344 three times a week starting with 40 mg/kg, dose gradually reduced to 20 mg/kg
[2] = tested on: Colo-205 (colorectal cancer) xenograft model; assay: In vivo efficacy/synergy study, relative tumor volume in Colo-205 xenograft model; settings: for Relative tumor volume: 5 days on
Experimental: (§1) An in vivo efficacy study was conducted with olaparib alone as a single agent. […] Groups of animals (n=5) were dosed with olaparib (i.p.) 5 days on, 2 days off using 10-100 mg/kg doses.
(§2) Combination groups (n=5) were dosed with olaparib (i.p.) 5 days on, 2 days off, using a 50 mg/kg dose for 28 days.

[3] = tested on: A549 (NSCLC) xenograft model; assay: In vivo efficacy/synergy study, relative tumor volume in A549 xenograft model
Experimental: as §1, §2

[4] = tested on: y-H2AX foci (DSB formation); assay: Immunohistochemical analysis of y-H2AX foci after olaparib treatment in xenograft models; type: in vivo; settings: Example 3: after olaparib treatment, i.p. 10-100 mg/kg; Colo-205 and A549 xenograft models
Experimental: An in vivo efficacy study was conducted with olaparib alone as a single agent. Olaparib was given as a single agent at different doses in a Colo-205 (colorectal cancer) xenograft model and in an A549 (NSCLC) xenograft model. Groups of animals (n=5) were dosed with olaparib (i.p.) 5 days on, 2 days off using 10-100 mg/kg doses.

| Compound | Animal somnolence [1] | Relative tumor volume (single agent efficacy) ([2]; Example 3: olaparib i.p. 5 days on, 2 days off, 10-100 mg/kg doses (FIG. 6A)) | Relative tumor volume ([2]; Example 4, dosing schedule 1 (FIG. 7): [225Ac]-FPI-1434 50 nCi, olaparib i.p. 50 mg/kg, 2 days off for 28 days, pre-dosed 3 times prior to [225Ac]-FPI-1434, up to 28 days) | Relative tumor volume ([2]; Example 5, dosing schedule 2 (FIG. 9): [225Ac]-FPI-1434 50 nCi, olaparib i.p. 50 mg/kg, 2 days off for 28 days, first dose 24 hours after FPI-1434, up to 28 days) | Relative tumor volume ([2]; Example 6 (FIG. 12): lower effective doses, [225Ac]-FPI-1434 20 nCi and olaparib 25 mg/kg i.p., 2 days off from 24 hours after until day 30) | Relative tumor volume (single agent efficacy) ([3]; Example 3: olaparib i.p. 5 days on, 2 days off, 10-100 mg/kg doses (FIG. 6B)) | Relative tumor volume ([3]; Example 4, dosing schedule 1 (FIG. 7): [225Ac]-FPI-1434 200 nCi, olaparib i.p. 50 mg/kg, 5 days on, 2 days off for 28 days, pre-dosed 3 times prior to [225Ac]-FPI-1434, up to 28 days) | DSB formation by immunohistochemical analysis of y-H2AX foci [4] |
| --- | --- | --- | --- | --- | --- | --- | --- | --- |
| C[C@@H]1COCCN1c1cc(-c2ccnn2C)c2ccnc(-c3ccn[nH]3)c2n1 [BAY-1895344] | transient animal somnolence at the higher doses | – | – | – | – | – | – | – |
| O=C(c1cc(Cc2n[nH]c(=O)c3ccccc23)ccc1F)N1CCN(C(=O)C2CC2)CC1 [olaparib] | – | modest efficacy as a single agent; also recorded: did not appear to be a dose response | demonstrated some reduction in tumor volume over time | demonstrated significant reduction in tumor volume overtime | no or limited therapeutic effect | modest efficacy as a single agent; also recorded: did not appear to be a dose response | no apparent difference in tumor volume over time | no increase in DSB formation |
